Results reported in patent publication US8686021B2, “Use of a benzoyl derivative of 3-aminocarbazole for the treatment of a disorder associated with the production of prostaglandin E2 (PGE2)” (Aziende Chimiche Riunite Angelini Francesco A.C.R.A.F. …, priority 2005, dated 2014).

Legend:
production of PGE2 = experiment: In-vitro activity test: inhibition of PGE2 production in IL-1β-stimulated A549 cells; format: cell-based, human; conditions: 18 hours
Source text: (§1) This test is used to evaluate capability to inhibit the production of PGE2 and selectivity with respect to the production of PGF2, for each of the compounds under examination.
(§2) Cell line A549, human lung adenocarcinoma, which is particularly sensitive to stimulation with proinflammatory cytokines such as IL-1β, and, in response to that stimulation, particularly active in the production and release of two prostanoids: PGE2 and PGF2α (Thoren S., Jakobsson P. J. “Coordinate up- and down-regulation of glutathione-dependent prostaglandin E synthase and cyclooxygenase-2 in A549 cells. Inhibition by NS-398 and leukotriene C4”, Eur. J. Biochem. 2000, 267(21):6428-6434)) was used.
(§3) The cells were stimulated with IL-1β (1 ng/ml) and at the same time treated with the compounds under test for 18 hours in an appropriate culture medium (DMEM—Dulbecco's Modified Eagles Medium) enriched with 5% bovine foetal serum and L-glutamine (4 mM final) in an incubator at 37° C. and with a CO2 concentration of 5%.
(§4) After incubation the quantities of PGE2 and PGF2α produced and released into the supernatant were determined using an EIA kit (manufactured and marketed by Cayman Chemicals, Ann Arbor, Mich., USA).
(§5) The results, shown in Table 3, are expressed as percentage inhibition of the production of PGE2 and PGF2α at a concentration of […].

production of PGF2α = experiment: In-vitro activity test: inhibition of PGF2α production in IL-1β-stimulated A549 cells; format: cell-based, human; conditions: 18 hours
Source text: as §1, §2, §3, §4, §5

[1] = test system: pained behaviour induced by acetic acid in mice; experiment: In-vivo activity test: acetic acid-induced stretching (nociceptive test of inflammatory origin) in mice; conditions: female CD-1 mice; 30 mg/kg orally in methyl cellulose (MTC), 1 hour before acetic acid i.p.; mean±SD; vehicle MTC 58 ± 5
Protocol: This test makes it possible to evaluate the activity of the compounds according to this invention in a nociceptive test of inflammatory origin. Compound 1 was used for this purpose in an experimental model which provokes pained behaviour induced by acetic acid in mice (Stock, J. L. et al., J. Clin. Inv. 2001, 107:325-331). Female CD-1 mice weighing 25-30 g were used for the test.
The animals were treated orally with compound 1 (30 mg/kg) suspended in methyl cellulose (MTC). The control animals were treated with the vehicle (MTC) alone, orally.
One hour after treatment acetic acid (0.7% v/v in physiological solution, 16 μl/g of body weight) was injected into the animals intraperitoneally to induce inflammatory pain and check the effects of the treatment on the nociceptive response.
The number of stretches, which represents the evaluation parameter for the nociceptive response, was measured immediately after the administration of acetic acid and for the next 20 minutes.

production of PGI2 = experiment: Test on human primary endothelial cells (HUVEC): secretion of PGI2; format: cell-based
Protocol: This test is used to evaluate the ability of the compounds in Table 2 to inhibit the production of PGI2.
The absence of inhibitory activity on these prostanoids may ensure that the vasoprotective action of PGI2 is maintained and provides useful pharmacological information about the absence of adverse effects on the endothelium.
Compound 1 was used in the test.
The action of the compound under test was evaluated in HUVEC cells under basal and stimulation conditions (J. Immunol. 1989 Jun. 1; 142(11):3993-9).
The results are shown in Table 6 and are expressed as percentage inhibition in comparison with control enzyme activity.
Indomethacin was used as the reference compound.

[2] = 10 μM, A549 cells stimulated with IL-1β (1 ng/ml), EIA kit
[3] = A549 cells stimulated with IL-1β
[4] = Homo sapiens, 10 μM, A549 cells stimulated with IL-1β (1 ng/ml), EIA kit

CCn1c2ccccc2c2cc(NC(=O)c3ccccc3Br)ccc21 [Compound 3]
% inhibition at 10 μM PGE2 (production of PGE2; [2]): 81%
pIC50 PGE2 (production of PGE2; [3]): 5.5
% inhibition at 10 μM PGF2α (production of PGF2α; [2]): 0%
pIC50 PGF2α (production of PGF2α; [3]): <4

CCn1c2ccccc2c2cc(NC(=O)c3ccccc3I)ccc21 [Compound 4]
% inhibition at 10 μM PGE2 (production of PGE2; [2]): 84%
pIC50 PGE2 (production of PGE2; [3]): 5.4
% inhibition at 10 μM PGF2α (production of PGF2α; [2]): 0%
pIC50 PGF2α (production of PGF2α; [3]): <4

CCn1c2ccccc2c2cc(NC(=O)c3ccccc3)ccc21 [B, reference compound]
% inhibition at 10 μM PGE2 (production of PGE2; [2]): 46%
% inhibition at 10 μM PGF2α (production of PGF2α; [2]): 40%

CCn1c2ccccc2c2cc(NC(=O)c3ccccc3OC)ccc21 [A, reference compound]
% inhibition at 10 μM PGE2 (production of PGE2; [2]): 98%
% inhibition at 10 μM PGF2α (production of PGF2α; [2]): 95%

CCn1c2ccccc2c2cc(NC(=O)c3ccccc3Cl)ccc21 [Compound 1]
No. stretches in 20 min [1]: 40 ± 5
% inhibition at 10 μM PGE2 (production of PGE2; [2]): 82%
pIC50 PGE2 (production of PGE2; [3]): 5.7
% inhibition, test for the secretion of PGI2, Basal (HUVEC) (production of PGI2; 10 μM, basal conditions): 0%
% inhibition, test for the secretion of PGI2, Stimulated (HUVEC) (production of PGI2; 10 μM, stimulation conditions): 0%
% inhibition at 10 μM PGF2α (production of PGF2α; [2]): 16%
pIC50 PGF2α (production of PGF2α; [3]): 4.1

COc1ccc2c(c1)c(CC(=O)O)c(C)n2C(=O)c1ccc(Cl)cc1 [Indomethacin, reference compound]
inhibition at 10 µM (production of PGE2; [4]): 100%
IC50 (production of PGE2; Homo sapiens, A549 cells stimulated with IL-1β, read-out: pIC50 PGE2 (converted)): 5.01 nM
inhibition at 10 µM (production of PGI2; Homo sapiens, stimulation conditions, read-out: % inhibition, test for the secretion of PGI2, Stimulated (HUVEC)): 100%
inhibition at 10 µM (production of PGF2α; [4]): 100%
IC50 (production of PGF2α; Homo sapiens, A549 cells stimulated with IL-1β, read-out: pIC50 PGF2α (converted)): 2.51 nM

CCn1c2ccccc2c2cc(NC(=O)c3ccc(C)cc3)ccc21 [C, reference compound]
% inhibition at 10 μM PGE2 (production of PGE2; [2]): 43%
% inhibition at 10 μM PGF2α (production of PGF2α; [2]): 49%

CCn1c2ccccc2c2cc(NC(=O)c3ccccc3[N+](=O)[O-])ccc21 [Compound 5]
% inhibition at 10 μM PGE2 (production of PGE2; [2]): 27%
% inhibition at 10 μM PGF2α (production of PGF2α; [2]): 0%

CCn1c2ccccc2c2cc(NC(=O)c3c(Cl)cccc3Cl)ccc21 [Compound 6]
% inhibition at 10 μM PGE2 (production of PGE2; [2]): 89%
% inhibition at 10 μM PGF2α (production of PGF2α; [2]): 51%

CCn1c2ccccc2c2cc(NC(=O)c3cc([N+](=O)[O-])ccc3Cl)ccc21 [Compound 7]
% inhibition at 10 μM PGE2 (production of PGE2; [2]): 70%
% inhibition at 10 μM PGF2α (production of PGF2α; [2]): 0%

CCn1c2ccccc2c2cc(NC(=O)c3ccccc3C)ccc21 [Compound 2]
% inhibition at 10 μM PGE2 (production of PGE2; [2]): 83%
pIC50 PGE2 (production of PGE2; [3]): 5.3
% inhibition at 10 μM PGF2α (production of PGF2α; [2]): 44%
pIC50 PGF2α (production of PGF2α; [3]): 4.3

CCn1c2ccccc2c2cc(NC(=O)c3cc(Cl)ccc3Cl)ccc21 [Compound 8]
% inhibition at 10 μM PGE2 (production of PGE2; [2]): 93%
% inhibition at 10 μM PGF2α (production of PGF2α; [2]): 37%
